Like-named read-outs stand apart in the source and are kept apart here.
Tests used:
[1] = rcm bond, DCE
[2] = tested on: NL-RLuc virus; assay: Inhibition of HIV replication (NL-RLuc luciferase reporter virus in MT-2 cells); type: cell-based, human immunodeficiency virus (HIV); conditions: recombinant NL-Rluc virus infecting MT-2 cells, 5 days of incubation, luciferase readout; at least 2 experiments; serum condition not given (10% FBS, 15 mg/ml human serum albumin/10% FBS or 40% human serum/5% FBS)

SMILES | EC50 [2] [nM] | also measured
CCOC(=O)[C@@H](OC(C)(C)C)c1c(C)nc2cc3nn2c1N1CCC(C)(CC1)OCCCCOc1ccccc1CC(=O)CNC3=O | – | ring closure, yield of all isomers ([1]; from C=CCOc1ccccc1CC(O)CNC(=O)c1cc2nc(C)c([C@H](OC(C)(C)C)C(=O)OCC)c(N3CCC(C)(OCC=C)CC3)n2n1, Hoveyda-Grubbs 2nd generation, 7.4 mM, 70.0 °C, 2.0 h, 3 steps): 43.1%
Cc1nc2cc3nn2c(c1[C@H](OC(C)(C)C)C(=O)O)-c1ccc2c(c1Cl)N(CC=CCCc1ccccc1CNC3=O)CCO2 | – | ring closure, yield of all isomers ([1]; from C=CCCc1ccccc1CNC(=O)c1cc2nc(C)c([C@H](OC(C)(C)C)C(=O)OCC)c(-c3ccc4c(c3Cl)N(CC=C)CCO4)n2n1, Hoveyda-Grubbs II, 32.0 mM, 83.0 °C, 3.0 h, 2 steps): 14.8%
Cc1nc2cc3nn2c(c1[C@H](OC(C)(C)C)C(=O)O)-c1ccc2c(c1Cl)N(CC=CCOc1cc(F)ccc1CNC3=O)CCO2 | – | ring closure, yield of all isomers ([1]; from C=CCOc1cc(F)ccc1CNC(=O)c1cc2nc(C)c([C@H](OC(C)(C)C)C(=O)OCC)c(-c3ccc4c(c3Cl)N(CC=C)CCO4)n2n1, Hoveyda-Grubbs II, 57.0 mM, 83.0 °C, 3.0 h, 2 steps): 30.5%
Cc1nc2cc3nn2c(c1[C@H](OC(C)(C)C)C(=O)O)-c1ccccc1C=CCOc1cc(F)ccc1CNC3=O | – | ring closure, yield of all isomers ([1]; from C=CCOc1cc(F)ccc1CNC(=O)c1cc2nc(C)c([C@H](OC(C)(C)C)C(=O)OCC)c(-c3ccccc3C=C)n2n1, Hoveyda-Grubbs II, 37.0 mM, 83.0 °C, 16.0 h, 2 steps): 5%
Cc1nc2cc3nn2c(c1[C@H](OC(C)(C)C)C(=O)O)N1CCC(C)(CC1)OCCCCOc1ccccc1CC(O)CNC3=O (some centres unmarked) | – | ring closure, yield of all isomers ([1]; from C=CCOc1ccccc1CC(O)CNC(=O)c1cc2nc(C)c([C@H](OC(C)(C)C)C(=O)OCC)c(N3CCC(C)(OCC=C)CC3)n2n1, Hoveyda-Grubbs 2nd generation, 6.0 mM, 70.0 °C, 2.0 h, 3 steps): 51.1%
Cc1nc2cc3nn2c(c1[C@H](OC(C)(C)C)C(=O)O)-c1ccc2c(c1Cl)N(C/C=C/COc1cc(F)ccc1CNC3=O)CCO2 (single isomer, unassigned) [Example 2] | 31 | –
Cc1nc2cc3nn2c(c1[C@H](OC(C)(C)C)C(=O)O)-c1ccc2c(c1Cl)N(CC/C=C\Oc1cc(F)ccc1CNC3=O)CCO2 (single isomer, unassigned) [Example 3] | 42 | –
Cc1nc2cc3nn2c(c1[C@H](OC(C)(C)C)C(=O)O)-c1ccc2c(c1Cl)N(C/C=C/COc1cc(F)ccc1CNC3=O)CCO2 (single isomer, unassigned) [Example 4] | 1460 | –
Cc1nc2cc3nn2c(c1[C@H](OC(C)(C)C)C(=O)O)-c1ccc2c(c1Cl)N(CC/C=C\Oc1cc(F)ccc1CNC3=O)CCO2 (single isomer, unassigned) [Example 5] | 12100 | –
Cc1nc2cc3nn2c(c1[C@H](OC(C)(C)C)C(=O)O)N1CCC(C)(CC1)OCCCCOc1ccccc1CC(O)CNC3=O (single isomer, unassigned) [Example 21] | 136 | –
Cc1nc2cc3nn2c(c1[C@H](OC(C)(C)C)C(=O)O)N1CCC(C)(CC1)OCCCCOc1ccccc1CC(O)CNC3=O (single isomer, unassigned) [Example 22] | 57 | –

Reference: patent publication US9540393B2, “Inhibitors of human immunodeficiency virus replication” (priority 2013, dated 2017)
